Measured values: patent publication US20260273078A1, “AN INJECTABLE DELIVERY SYSTEM FOR LONG-ACTING ADMINISTRATION OF DRUGS” (priority 2023, published 2026)
“Also recorded” adds a separate entry of the source.

Assays:
proteinase K = proteinase K (Parengyodontium album, UniProt P06873); assay: Biostability after incubation with proteinase K over 28 days; assay type: in vitro ADME; conditions: up to 28 days
Text: L-peptide NapFFKY(p)G-OH (small circle) and D-peptide NapffkY(p)G-OH (upright triangle) are peptide-only controls that also form hydrogels in response to phosphatase enzymes.

HIV = conditions: cited from earlier work

Chain of proteinase K (P06873 106-384): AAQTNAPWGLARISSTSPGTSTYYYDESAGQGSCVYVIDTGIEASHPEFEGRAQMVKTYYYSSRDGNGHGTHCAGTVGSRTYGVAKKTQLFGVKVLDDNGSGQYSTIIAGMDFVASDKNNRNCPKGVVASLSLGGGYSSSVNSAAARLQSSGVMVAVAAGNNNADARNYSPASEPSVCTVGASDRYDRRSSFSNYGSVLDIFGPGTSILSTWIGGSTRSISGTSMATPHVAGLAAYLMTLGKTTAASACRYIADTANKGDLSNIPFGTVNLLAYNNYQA

Row | Molecule | Biostability in the presence of proteinase-K (in words) (proteinase K) | IC50 range (HIV) [µg/mL]
1 | NCCCC[C@H](NC(=O)[C@H](Cc1ccccc1)NC(=O)[C@H](Cc1ccccc1)NC(=O)Cc1ccc2ccccc2c1)C(=O)N[C@@H](Cc1ccc(OP(=O)(O)O)cc1)C(=O)NCC(=O)O [L-peptide, NapFFKY(p)G-OH, reference compound] | degrades rapidly, within hours | 
2 | Cc1cn([C@H]2C[C@H](N=[N+]=[N-])[C@@H](CO)O2)c(=O)[nH]c1=O [zidovudine] |  | 0.03 to 0.13
3 | (NPhe)4GGGGKY(p)-OH [PP4G L-peptide variant] | breaks down between days; also recorded: breaks down within days | 
4 | NapffkY(p)G-OH [D-peptides, reference compound] | significant stability after 28 days | 
